From patent US20110213236A1, “THERAPEUTIC COMPOSITIONS, DEVICES AND METHODS FOR OBSERVING TREATED TISSUES” (IMMUNOPATH PROFILE, INC., priority 2008, published 2011)

Tests used:
Format in all cases: in vivo, human
[1] = tested on: gout; assay: Gout; conditions: locally added to the transdermal cream
Description: This acute musculoskeletal strain and severe foot pain occurred when getting out of bed, and standing with bare feet. The strain was associated with extensive standing and walking without their customary shoe arch support. […] The use of Advil liquid filled capsules solubilized ibuprofen locally added to the transdermal cream expedited the reversal of acute gout after one-two applications.
When used transdermally on all these examples, the permeability was increased with the subsequent use of the heating pad, but in the case of the Gout, it was used at its mildest level. […] In the treatment of Gout, the patient responded first to the Resveratrol enriched transdermal cream as in Example Group 2 locally applied used 3 times daily, with Garlic powder by Oregon Wild Harvest, specially processed, air-dried, and ground with a water-cooled grinding system to avoid generating heat, was sprinkled onto the wound as an anti-fungal agent derived from the cloves and root system of the Garlic plant and serving as a GRAS item to impart the innate immunity found in the defensin adaptogen of the plant, with good success.

[2] = tested on: atrial fibrillation; assay: Atrial fibrillation patient treated with Cardizem and subject composition
Description: We see the same effect in the remarkable drug, Levodopa, in the treatment of Parkinsonism with the side effects of stroke, heart attack, and substantia nigra, basal ganglia damage. […] The total studies were almost 30,000 in number and BIOMARKERS TISSUE […] AND […] TARGETS FOR CARDIAC […] Cardiac arrhythmia nutritional deficiencies, 496 studies compared with:
Vitamin B1 was cited as the most critical of preventing and reversing arrhythmia in starvation studies. Omega-3 fish oil was shown pre-clinically to be effective in the animal heart studies: after it was digested from and enzymatic release from glycerol was not only shown by Leaf in vitro in the isolated beating animal heart muscle to prevent toxicity effects of toxic chemicals. On our chemical moiety orientated spreadsheet where we listed more than 1,400 studies documenting the efficacy of magnesium.
With complete components listed in the spreadsheet of indicated diseases, giving a more complete list, provides by maximizing and optimizing efficacy and safety in the foregoing subject composition free of undesirable effects not only for the treatment of disease but for averting these undesirable side-effects. […]

[3] = tested on: degenerative osteoarthritis of the knee; assay: Degenerative osteoarthritis of the knee and pulled ligament, lotion; conditions: 600 mg
Procedure: A dentist was diagnosed with degenerative osteoarthritis of the left knee in 2001, by an orthopedic surgeon at the Henry Ford Health System in Farmington Hillsi Mich. At that time, they were […], and was working 55 hours per week at their dental practice. The orthopedic surgeon advised a complete knee replacement since the joint space was minimal as per the M.Rt. The meniscus had worn away from athletics and job requirements. The option was chosen of using occasional steroid injections in times of severe inflammation along with the daily use of Celebrex until they could no longer function, rather than have such an irreversible traumatic operation, at their age. The doctor agreed. Their quality of life was affected as was their comfort during work.
A few years later, the right knee ligaments were starting to weaken resulting in much pain and dysfunction, the now patient's gait was hobbled to a severe limp.
A composition of the subject invention in lotion form was applied twice daily after warming the area with a moist-heat heating pad for a few minutes.
Plans for a knee replacement were put on hold. The patient subsequently suffered a ligament pulled ligament in the groin. The ligament was also treated with the same composition In three days the pain was gone.

Structure (SMILES): CC(C)Cc1ccc(C(C)C(=O)O)cc1 (stereo not drawn) [Advil, ibuprofen]
- applications until reversal of acute gout [1]: one-two

Structure (SMILES): COc1ccc([C@@H]2Sc3ccccc3N(CCN(C)C)C(=O)[C@@H]2OC(C)=O)cc1 [Cardizem]
- side effects on the second dose [2]: pain, inability to walk, and weakness

Structure (SMILES): CC(C)Cc1ccc(C(C)C(=O)O)cc1 (stereo not drawn) [Ibuprofen]
- effect on knee pain and dysfunction [3]: helpful but not therapeutic
